Values of other authors as cited in patent US11793769B2, “Device with compositions for delivery to the lungs, the oral mucosa and the brain” (priority 2014, dated 2023).

Legend:
[1] = target: cannabinoid type II receptor (CB2) (Homo sapiens, UniProt P34972); details: compared with CB1
[2] = tested on: paclitaxel-induced neuropathic pain; details: without affecting the efficacy of the chemotherapy
[3] = tested on: animal models of anxiety and depression; details: in vivo

cannabinoid type II receptor (CB2), sequence (P34972 whole entry, species assumed): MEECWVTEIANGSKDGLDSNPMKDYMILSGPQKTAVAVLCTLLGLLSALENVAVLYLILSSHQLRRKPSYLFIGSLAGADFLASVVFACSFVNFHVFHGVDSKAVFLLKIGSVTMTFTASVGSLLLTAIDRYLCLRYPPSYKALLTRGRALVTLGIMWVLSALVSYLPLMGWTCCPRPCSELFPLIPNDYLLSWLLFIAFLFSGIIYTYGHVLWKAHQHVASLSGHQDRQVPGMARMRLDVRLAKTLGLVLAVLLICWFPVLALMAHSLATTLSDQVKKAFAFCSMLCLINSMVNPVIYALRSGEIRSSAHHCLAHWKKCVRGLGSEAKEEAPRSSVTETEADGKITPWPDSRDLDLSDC

C=C(C)[C@@H]1CCC(C)=C[C@H]1c1c(O)cc(CCCCC)cc1O [CBD, cannabidiol]
affinity to CB2 [1]: higher affinity
effect on paclitaxel-induced neuropathic pain [2]: inhibits paclitaxel-induced neuropathic pain
effects in animal models of anxiety and depression [3]: both anti-anxiety and antidepressant effects
